Molecules are shown by their SMILES. pIC50: −log10 of the molar value.

What is called pIC50 is the IC50 on a negative log10 scale, so that one unit is a factor of ten. As usually defined, the IC90 is the concentration needed for an effect of 90%.

This test concerns Plasmodium berghei. The test is described as follows: Luciferase/luciferin-expressing antifolate-resistant parasites were used to infect a culture of HepG2 cells that were pre-incubated with compounds. Infected hepatocytes emit light due to the luciferase reaction. Assay results are presented as the percent inhibition of light emission compared to control. […]. The following applies: sporozoite; for IC90: read-out: LUCIFERASE INFECTION ASSAY - IC90. The test is classed as functional.

Setting [1] is: read-out: LUCIFERASE INFECTION ASSAY - IC50.

Regarding `CCN(C(=O)CN(Cc1ccccc1)S(=O)(=O)/C=C/c1ccccc1)c1cccc2ccccc12`, the IC90 was above 10 µM. For the same compound, the pIC50 (HEPG2TOX_HILL_SLOPE 0.0751, HEPG2TOX_R_SQUARED 0.254, read-out: LUCIFERASE INFECTION ASSAY - IC50) is below 5.00.

As for `CC(C)(Oc1ccc(C#N)cc1)C(=O)O`, the IC90 is above 16.1 µM. Also, the negative logarithm of the IC50 (pIC50) under setting [1] is below 4.79.

In the case of `Cc1nc2ccccc2nc1SCC(=O)NC1CCCC(C)C1C` (stereo unspecified), the IC90 amounted to 8.45 µM. Further, the pIC50 (HEPG2TOX_HILL_SLOPE 2.05, HEPG2TOX_R_SQUARED 0.851, PBLUC_HILL_SLOPE 3.81, PBLUC_R_SQUARED 0.351, read-out: LUCIFERASE INFECTION ASSAY - IC50) was 5.32.

As to `O=C(c1ccc2nc[nH]c2c1)N1CCc2nc(NCc3cccc(Oc4ccccc4)c3)ncc2C1`, the IC90 is above 6.92 µM. Further, the pIC50 (HEPG2TOX_HILL_SLOPE 1.36, HEPG2TOX_R_SQUARED 0.938, PBLUC_HILL_SLOPE 1.78, PBLUC_R_SQUARED 0.322, read-out: LUCIFERASE INFECTION ASSAY - IC50) was 5.62.

Regarding `N#Cc1c(SCC(=O)c2ccccc2)nc2c(c1-c1cccs1)CCCC2`, the IC90 was above 8.45 µM. Besides, the negative logarithm of the IC50 (pIC50) (FFLUC_HILL_SLOPE 16.5, FFLUC_R_SQUARED 0.662, PBLUC_HILL_SLOPE 1.37, PBLUC_R_SQUARED 0.669, read-out: LUCIFERASE INFECTION ASSAY - IC50) was 5.44.

Take `CNc1snc(C)c1C(=O)NCc1ccc(COCC(F)(F)F)cc1`: the IC90 turned out to be 1.72 µM. Moreover, the negative logarithm of the IC50 (pIC50) (HEPG2TOX_HILL_SLOPE 1.16, HEPG2TOX_R_SQUARED 0.865, PBLUC_HILL_SLOPE 3.24, 27.9, PBLUC_R_SQUARED 0.892, 0.904, read-out: LUCIFERASE INFECTION ASSAY - IC50) is 5.95.

In the case of `Cc1cc(N2CCN(C)CC2)ccc1NC(=O)c1cnc2c(c1)c(=O)n(C)c(=O)n2C`, the IC90 was above 10 µM. Besides, the pIC50 under setting [1] was below 5.00.

As for `OCc1ccc(-c2cn3c(-c4ccc5ncccc5c4)cnc3cn2)cc1`, the concentration for an effect of 90% (IC90) is 3.45 µM. Also, the pIC50 (HEPG2TOX_HILL_SLOPE 2.22, HEPG2TOX_R_SQUARED 0.955, PBLUC_HILL_SLOPE 5.03, PBLUC_R_SQUARED 0.612, read-out: LUCIFERASE INFECTION ASSAY - IC50) was 5.65.

For `COc1cc(OC)c(NC(=O)c2cc3ccccc3cc2OCC(=O)NC(C)c2ccccc2)cc1Cl` (stereo unspecified), the concentration for an effect of 90% (IC90) is above 10 µM. The pIC50 under setting [1] was below 5.00.

With `CN(C(=O)CCc1cc(C(C)(C)C)c(O)c(C(C)(C)C)c1)C1CCS(=O)(=O)C1` (stereo unspecified), the IC90 was above 10 µM. Also, under setting [1], the pIC50 is below 5.00.

In the case of `N#Cc1ccc(Nc2nc(C(F)(F)F)nc3ccccc23)cc1`, the IC90 was 5.09 µM. Also, the pIC50 (HEPG2TOX_HILL_SLOPE 12.3, HEPG2TOX_R_SQUARED 0.755, PBLUC_HILL_SLOPE 4.38, PBLUC_R_SQUARED 0.727, read-out: LUCIFERASE INFECTION ASSAY - IC50) is 5.51.

On to `COc1cc(NC(=O)N2CCc3nc(Nc4cc(Cl)cc(Cl)c4)ncc3C2)cc(OC)c1OC`, for which the IC90 was above 6.54 µM. For the setting “PBLUC_HILL_SLOPE 1.96, PBLUC_R_SQUARED 0.41, read-out: LUCIFERASE INFECTION ASSAY - IC50”, the pIC50 was 5.45.

As to `NC1=Nc2cccc3cccc(c23)N1`, the IC90 is 12.9 µM. Where the note is “FFLUC_HILL_SLOPE 1.44, FFLUC_R_SQUARED 0.698, HEPG2TOX_HILL_SLOPE 2.55, HEPG2TOX_R_SQUARED 0.966, PBLUC_HILL_SLOPE 3.15, PBLUC_R_SQUARED 0.786, read-out: LUCIFERASE INFECTION ASSAY - IC50”, the pIC50 was 5.19.

In the case of `COc1ccc(CCN=C(S)NC2CCN(Cc3ccccc3)CC2)cc1`, the 90% effect concentration (IC90) was above 10 µM. Further, the pIC50 (HEPG2TOX_HILL_SLOPE 2.55, HEPG2TOX_R_SQUARED 0.6, read-out: LUCIFERASE INFECTION ASSAY - IC50) is below 5.00.

For the compound `COc1ccc(-c2cnc3cnc(-c4ccsc4)cn23)cn1`, the 90% effect concentration (IC90) came out at 9.71 µM. Besides, the negative logarithm of the IC50 (pIC50) (PBLUC_HILL_SLOPE 12.3, PBLUC_R_SQUARED 0.383, read-out: LUCIFERASE INFECTION ASSAY - IC50) is 5.09.

In the case of `O=C(CCc1c(-c2ccc(F)cc2)[nH]c2ccc(F)cc12)N1CCN(c2ccncc2)CC1`, the concentration for an effect of 90% (IC90) worked out at 8.48 µM. Moreover, where the note is “PBLUC_HILL_SLOPE 5.15, PBLUC_R_SQUARED 0.285, read-out: LUCIFERASE INFECTION ASSAY - IC50”, the negative-log IC50 (pIC50) is 5.26.

For `O=C(CN1CCN(c2ccc(C(F)(F)F)cn2)CC1)N1CCC(c2nc3ccccc3s2)CC1`, the 90% effect concentration (IC90) was above 10 µM. For the same compound, the pIC50 (HEPG2TOX_HILL_SLOPE 13.7, HEPG2TOX_R_SQUARED 0.915, PBLUC_HILL_SLOPE 1.27, PBLUC_R_SQUARED 0.698, read-out: LUCIFERASE INFECTION ASSAY - IC50) is 5.46.

`O=C(Cc1csc(-c2ccc(C(F)(F)F)cc2)n1)NCc1cnn(-c2ccccc2)c1`: the IC90 is above 10 µM. In addition, under setting [1], the negative logarithm of the IC50 (pIC50) is below 5.00.

In the case of `Cc1cc(-c2nc(=O)c3ccccc3[nH]2)c(C)n1CC(C)C`, the IC90 came out at 4.1 µM. Under “PBLUC_HILL_SLOPE 3.39, PBLUC_R_SQUARED 0.354, read-out: LUCIFERASE INFECTION ASSAY - IC50”, the negative-log IC50 (pIC50) is 5.67.

For the compound `COc1ccc(-n2c(C)cc(/C=C(\C#N)C(=O)OCC(=O)Nc3ccc(Cl)c(C(F)(F)F)c3)c2C)cc1`, the IC90 is above 10 µM. In addition, the pIC50 under setting [1] was below 5.00.

As for `CNC(=O)c1ccc(CN(Cc2ccco2)Cc2cc3ccc(C)c(C)c3nc2Cl)cc1`, the concentration for an effect of 90% (IC90) turned out to be 1.48 µM. The pIC50 (PBLUC_HILL_SLOPE 9.58, PBLUC_R_SQUARED 0.657, read-out: LUCIFERASE INFECTION ASSAY - IC50) was 6.13.

Regarding `CC(C)c1ccc(NC(=O)[C@@H]2Cc3ccccc3CN2C(=O)OC(C)(C)C)cc1`, the IC90 was above 8.36 µM. Also, the pIC50 (PBLUC_HILL_SLOPE 2.17, PBLUC_R_SQUARED 0.544, read-out: LUCIFERASE INFECTION ASSAY - IC50) is 5.50.

Turning to `CCNC(=O)Cc1ccc(NC(=O)c2csc(Br)c2)cc1`, the 90% effect concentration (IC90) was above 10 µM. Further, the pIC50 (FFLUC_HILL_SLOPE 10.6, FFLUC_R_SQUARED 0.0524, read-out: LUCIFERASE INFECTION ASSAY - IC50) was below 5.00.

Consider `CN1/C(=C\C(=O)C[n+]2cccc(Br)c2)C(C)(C)c2ccccc21`, for which the IC90 was above 10 µM. The negative logarithm of the IC50 (pIC50) (HEPG2TOX_HILL_SLOPE 3.72, HEPG2TOX_R_SQUARED 0.897, PBLUC_HILL_SLOPE 2.59, PBLUC_R_SQUARED 0.674, read-out: LUCIFERASE INFECTION ASSAY - IC50) was 5.34.

Take `O=C(Nc1ccc(Nc2ccccc2)cc1)c1[nH]nc2ccccc12`: the IC90 is above 10 µM. In addition, where the note is “PBLUC_HILL_SLOPE 16, PBLUC_R_SQUARED 0.594, read-out: LUCIFERASE INFECTION ASSAY - IC50”, the pIC50 is 5.05.

As for `COc1ccc(-c2nc(NC(=O)c3ccc4nc[nH]c4c3)sc2C)cc1`, the IC90 was above 10 µM. For the same compound, the negative logarithm of the IC50 (pIC50) under setting [1] was below 5.00.

`O=C(Nc1ccccc1)Nc1ccccc1Sc1nccc(C(F)(F)F)n1`: the concentration for an effect of 90% (IC90) amounted to 8.05 µM. Besides, the negative logarithm of the IC50 (pIC50) (PBLUC_HILL_SLOPE 1.34, PBLUC_R_SQUARED 0.717, read-out: LUCIFERASE INFECTION ASSAY - IC50) was 5.80.

Turning to `O=C(Nc1nnc[nH]1)C1(c2ccc(F)cc2)CC1`, the concentration for an effect of 90% (IC90) is above 10 µM. Further, under setting [1], the pIC50 is below 5.00.

Consider `Cc1cc(C=C2Sc3ccc4ccccc4c3N2C)cc(C)[n+]1Cc1cccnc1`, for which the IC90 was above 10 µM. For the same compound, the negative-log IC50 (pIC50) under setting [1] was below 5.00.

Take `Cc1nc2ccccn2c1C(=O)N/N=C/c1c(-c2ccccc2)n(-c2ccccc2)c2ccccc12`: the IC90 is above 10 µM. Besides, the negative-log IC50 (pIC50) under setting [1] was below 5.00.

As for `COc1ccc(Nc2nccc3c2cc(-c2cccc(OC)c2)n3C)cc1`, the IC90 is 8.15 µM. In addition, the negative-log IC50 (pIC50) (PBLUC_HILL_SLOPE 2.81, PBLUC_R_SQUARED 0.348, read-out: LUCIFERASE INFECTION ASSAY - IC50) was 5.43.

Regarding `COC(=O)c1cccc(NC(=S)NC(=O)c2ccc(C(C)(C)C)cc2)c1`, the concentration for an effect of 90% (IC90) was above 8.91 µM. The pIC50 under setting [1] is below 5.05.

Consider `CC1CCN(Cc2nc3scc(-c4ccccc4)c3c(=O)n2CC(=O)N2CCc3ccccc32)CC1`, for which the 90% effect concentration (IC90) was above 10 µM. Also, the pIC50 under setting [1] was below 5.00.

For `COc1cccc(/C=C2\Oc3c(CN4CCN(C)CC4)c(O)cc(C)c3C2=O)c1`, the IC90 was above 8.37 µM. For the same compound, under setting [1], the negative-log IC50 (pIC50) is below 5.08.

For `COc1ccc(CNCc2ccc(N3CCCCCC3)cc2)cc1`, the IC90 is above 10 µM. Besides, the pIC50 (PBLUC_HILL_SLOPE 0.677, PBLUC_R_SQUARED 0.204, read-out: LUCIFERASE INFECTION ASSAY - IC50) is below 5.00.

Turning to `Cc1cc(=O)n2nc(-c3ccc(C(C)(C)C)cc3)cc2[nH]1`, the IC90 turned out to be 2.42 µM. Further, the negative logarithm of the IC50 (pIC50) (HEPG2TOX_HILL_SLOPE 9.72, HEPG2TOX_R_SQUARED 0.89, PBLUC_HILL_SLOPE 2.59, PBLUC_R_SQUARED 0.666, read-out: LUCIFERASE INFECTION ASSAY - IC50) is 5.98.

On to `Cc1ccc([N+](=O)[O-])cc1S(=O)(=O)Nc1ccccc1C(=O)OCC(=O)NCCC1=CCCCC1`, for which the IC90 is above 10 µM. Besides, where the note is “HEPG2TOX_HILL_SLOPE 2.79, HEPG2TOX_R_SQUARED 0.956, PBLUC_HILL_SLOPE 19.8, PBLUC_R_SQUARED 0.561, read-out: LUCIFERASE INFECTION ASSAY - IC50”, the pIC50 is 5.04.

Turning to `O=C(Nc1ccc(Oc2cc(C(F)(F)F)cc(C(F)(F)F)c2)cc1)Nc1ccc(OC(F)(F)F)cc1`, the IC90 was 0.304 µM. In addition, for the setting “FFLUC_HILL_SLOPE 4.18, FFLUC_R_SQUARED 0.0377, HEPG2TOX_HILL_SLOPE 3.88, HEPG2TOX_R_SQUARED 0.972, PBLUC_HILL_SLOPE 90.6, PBLUC_R_SQUARED 0.773, read-out: LUCIFERASE INFECTION ASSAY - IC50”, the negative logarithm of the IC50 (pIC50) is 6.53.

The values are drawn from ChEMBL document CHEMBL4483862, “Open-source discovery of chemical leads for next-generation chemoprotective antimalarials” (2018).
